Our source for the MBC and MIC values is ChEMBL document CHEMBL3217556, “Synthesis and anti-Helicobacter pylori activity of analogues of spirolaxine methyl ether” (2012).

Values after ≈ are worked out from the molar mass of the structure shown. Some results are limits rather than exact numbers.

The assay has as its system Helicobacter pylori. The experiment in a line: Antibacterial activity against Helicobacter pylori assessed as bacterial colonies formation incubated for 24 hrs measured after up to 5 days culturing time by CFU counting analysis. The assay is classed as functional.
Turning to `COc1cc(OC)c2ccn(CCCC[C@H]3CCC[C@]4(CC[C@H](C)O4)O3)c2c1`, the MBC (in general, the smallest concentration meeting the test's criterion for killing) turned out to be 3 µg/mL (≈ 7.74 µM) and the MIC – broadly, the smallest concentration in the dilution series that meets the test's criterion for growth inhibition – was determined as 3 µg/mL (≈ 7.74 µM).
For the molecule `COc1cc(OC)c2ccn(CCCCC[C@H]3CCC[C@]4(CC[C@H](C)O4)O3)c2c1`, the MBC worked out at 8.3 µg/mL (≈ 20.7 µM) and the minimal inhibitory concentration (MIC) was found to be 8.3 µg/mL (≈ 20.7 µM).
With `COc1cc(OC)c2ccn(CCCCCCCC[C@H]3CCC[C@]4(CC[C@H](C)O4)O3)c2c1`, the MBC was above 100 µg/mL and the MIC is above 100 µg/mL.
Take `COc1cc(OC)c2c(c1)N(CCCC[C@H]1CCC[C@]3(CC[C@H](C)O3)O1)C(=O)C2`: the MBC was 12.5 µg/mL (≈ 31 µM) and the MIC was determined as 12.5 µg/mL (≈ 31 µM).
Take `COc1cc(OC)c2c(c1)N(CCCCC[C@H]1CCC[C@]3(CC[C@H](C)O3)O1)C(=O)C2`: the MBC came out at 12.5 µg/mL (≈ 29.9 µM) and the MIC worked out at 12.5 µg/mL (≈ 29.9 µM).
As for `COc1cc(OC)c2c(c1)N(CCCCCCCC[C@H]1CCC[C@]3(CC[C@H](C)O3)O1)C(=O)C2`, the MBC was 16 µg/mL (≈ 34.8 µM) and the MIC is 16 µg/mL (≈ 34.8 µM).
Regarding `COc1cc(OC)c2c(c1)[C@@H](CCCC[C@H]1CCC[C@]3(CC[C@H](C)O3)O1)OC2=O`, the MBC came out at 12.5 µg/mL (≈ 30.9 µM) and the MIC is 12.5 µg/mL (≈ 30.9 µM).
Regarding `COc1cc(OC)c2c(c1)[C@@H](CCCCCCCC[C@H]1CCC[C@]3(CC[C@H](C)O3)O1)OC2=O`, the MBC is 3 µg/mL (≈ 6.51 µM) and the MIC stood at 3 µg/mL (≈ 6.51 µM).
As to `COc1cc(OC)c2c(c1)[C@@H](CCCCC[C@H]1CCC[C@]3(CC[C@@H](C)O3)O1)OC2=O`, the MBC turned out to be 1 µg/mL (≈ 2.39 µM) and the minimal inhibitory concentration (MIC) was found to be 2 µg/mL (≈ 4.78 µM).
